Results published in US8741944B2, “Anti-infective agents against intracellular pathogens” (priority 2007, dated 2014).

Assays:
PC-3 cells [1] = assay: Cell viability analysis, MTT assay in PC-3 cells; type: cell-based, human; details: inducing apoptotic death in PC-3 cells / PC-3 cell viability; read-out: IC50 PC-3
Description: Cell Culture PC-3 (p53−/−) human androgen-non-responsive prostate cancer cells were purchased from the American […] (Manassas, Va.). Cells were cultured in RPMI 1640 medium (Gibco, Grand Island, N.Y.) supplemented with 10% fetal bovine serum (FBS; Gibco) at 37° C. in a humidified incubator containing 5% CO2.
Controls received DMSO vehicle at a concentration equal to that in drug-treated cells. The medium was removed, replaced by 200 μl of 0.5 mg/ml of MTT in 10% FBS-containing RPMI-1640 medium, and cells were incubated in the CO2 incubator at 37° C. for 2 h. Supernatants were removed from the wells, and the reduced MTT dye was solubilized in 200 μL/well DMSO. Absorbance at 570 nm was determined on a plate reader.

PC-3 cells [2] = assay: Apoptosis analysis in PC-3 cells (DNA fragmentation ELISA, PARP cleavage); type: cell-based, human; details: 1% FBS-containing medium
Description: Apoptosis analysis Two methods were used to assess drug-induced apoptotic cell death: detection of DNA fragmentation by the Cell Death Detection ELISA kit (Roche Diagnostics. Mannheim, Germany) and Western blot analysis of poly-(ADP-ribose)polymerase (PARP) cleavage. […] In brief, 4×10^5 PC-3 cells were cultured in a T-25 flask for 24 h before treatment. Cells were treated with the DMSO vehicle or the test agent at the indicated concentrations for 6-24 h, collected, and cell lysates equivalent to 2×10^3 PC-3 cells were used in the ELISA. For the PARP cleavage assay, drug-treated cells were collected 4-8 h post-treatment, washed with ice-cold PBS, and resuspended in lysis buffer containing 20 mM Tris-HCl, pH 8, 137 mM NaCl, 1 mM CaCl2, 10% glycerol, 1% Nonidet P-40, 0.5% deoxycholate, 0.1% SDS, 100 μM 4-(2-aminoethyl)benzenesulfonyl fluoride, leupeptin at 10 μg/mL, and aprotinin at 10 μg/mL. Soluble cell lysates were collected after centrifugation at 10,000 g for 5 min. Equivalent amounts of proteins (60-100 μg) from each lysate were resolved in 8% SDS-polyacrylamide gels. Bands were transferred to nitrocellulose membranes, and analyzed by immunoblotting with anti-PARP antibody.

Akt = assay: Direct inhibition of immunoprecipitated Akt kinase activity; type: biochemical, human
phospho-Akt = assay: Western blot analysis of Akt and phospho-Akt in PC-3 cells; type: cell-based, human; details: even at 1 μM
Description: Immunoblotting. The general procedure for the Western blot analysis of Akt and phospho-Akt is described as follows. Cells were washed in PBS, resuspended in SDS sample buffer sonicated by an ultrasonic sonicator for 5 see, and boiled for 5 min. After brief centrifugation, equivalent protein concentrations from the soluble fractions were resolved in 10% SDS-polyacrylamide gels on a Minigel apparatus, and transferred to a nitrocellulose membrane using a semi-dry transfer cell. The transblotted membrane was washed three times with TBS containing 0.05% Tween 20 (TBST). After blocking with TBST containing 5% nonfat milk for 60 min., the membrane was incubated with the primary antibody at 1:1,000 dilution in TBST-5% low fat milk at 4° C. for 12 h, and was then washed three times with TBST. The membrane was probed with goat anti-rabbit IgG-HRP conjugates (1:1,000) for 1 h at room temperature, and was washed with TBST three times. The immunoblots were visualized by enhanced chemiluminescence.

HCT-15 (Colon Cancer) = assay: NCI DTP tumor cell line screen (SRB), HCT-15
Description: (§1) For a typical screening experiment, cells are inoculated into 96 well microtiter plates in 100 μL at plating densities ranging from 5,000 to 40,000 cells/well depending on the doubling time of individual cell lines. After cell inoculation, the microtiter plates are incubated at 37° C., 5% CO2, 95% air and 100% relative humidity for 24 h prior to addition of experimental drugs.
(§2) After 24 h, two plates of each cell line are fixed in situ with TCA, to represent a measurement of the cell population for each cell line at the time of drug addition (Tz). Experimental drugs are solubilized in dimethyl sulfoxide at 400-fold the desired final maximum test concentration and stored frozen prior to use. At the time of drug addition, an aliquot of frozen concentrate is thawed and diluted to twice the desired final maximum test concentration with complete medium containing 50 μg/ml gentamicin. Additional four, 10-fold or ½ log serial dilutions are made to provide a total of five drug concentrations plus control. Aliquots of 100 μl of these different drug dilutions are added to the appropriate microtiter wells already containing 100 μl of medium, resulting in the required final drug concentrations.
(§3) Following drug addition, the plates are incubated for an additional 48 h at 37° C., 5% CO2, 95% air, and 100% relative humidity. For adherent cells, the assay is terminated by the addition of cold TCA. Cells are fixed in situ by the gentle addition of 50 μl of cold 50% (w/v) TCA (final concentration, 10% TCA) and incubated for 60 minutes at 4° C. The supernatant is discarded, and the plates are washed five times with tap water and air dried. Sulforhodamine B (SRB) solution (1001) at 0.4% (w/v) in 1% acetic acid is added to each well, and plates are incubated for 10 minutes at room temperature. After staining, unbound dye is removed by washing five times with 1% acetic acid and the plates are air dried. Bound stain is subsequently solubilized with 10 mM trizma base, and the absorbance is read on an automated plate reader at a wavelength of 515 nm. For suspension cells, the methodology is the same except that the assay is terminated by fixing settled cells at the bottom of the wells by gently adding 50 μl of 80% TCA (final concentration, 16% TCA). Using the seven absorbance measurements [time zero, (Tz), control growth, (C), and test growth in the presence of drug at the five concentration levels (Ti)], the percentage growth is calculated at each of the drug concentrations levels. Percentage growth inhibition is calculated as: [(Ti−Tz)/(C−Tz)]×100 for concentrations for which Ti>/=Tz [(Ti−Tz)/Tz]×100 for concentrations for which Ti<Tz
(§4) Three dose response parameters are calculated for each experimental agent. […] The drug concentration resulting in total growth inhibition (TGI) is calculated from Ti=Tz. […] Values are calculated for each of these three parameters if the level of activity is reached; however, if the effect is not reached or is exceeded, the value for that parameter is expressed as greater or less than the maximum or minimum concentration tested.

recombinant PDK-1 = recombinant PDK-1 (Homo sapiens (Human), UniProt O15530); assay: PDK-1 kinase activity (PDK-1 kinase assay kit, cell-free); type: biochemical
recombinant PDK-1, sequence (O15530 whole entry, looked up): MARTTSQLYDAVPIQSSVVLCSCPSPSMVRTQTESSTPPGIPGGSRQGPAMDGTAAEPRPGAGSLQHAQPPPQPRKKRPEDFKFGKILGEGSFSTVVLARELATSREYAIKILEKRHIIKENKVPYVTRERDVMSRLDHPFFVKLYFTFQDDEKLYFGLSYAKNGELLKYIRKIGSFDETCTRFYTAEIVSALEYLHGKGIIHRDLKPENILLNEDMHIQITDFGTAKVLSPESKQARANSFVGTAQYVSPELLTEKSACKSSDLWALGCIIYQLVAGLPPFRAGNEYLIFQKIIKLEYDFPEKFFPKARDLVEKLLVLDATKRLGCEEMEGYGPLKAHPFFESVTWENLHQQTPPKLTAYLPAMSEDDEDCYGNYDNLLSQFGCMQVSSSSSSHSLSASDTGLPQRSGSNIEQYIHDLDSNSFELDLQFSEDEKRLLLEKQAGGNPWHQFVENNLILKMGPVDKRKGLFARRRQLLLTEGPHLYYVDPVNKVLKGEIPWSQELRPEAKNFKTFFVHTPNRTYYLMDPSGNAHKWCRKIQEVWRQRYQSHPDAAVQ
Description: PDK-1 kinase activity This in vitro assay was performed using a PDK-1 kinase assay kit (Upstate, Lake Placid, N.Y.) according to the vendor's instructions. This cell-free assay is based on the ability of recombinant PDK-1, in the presence of DMSO vehicle or the test agent, to activate its downstream kinase serum- and glucocorticoid-regulated kinase (SGK.) which, in turn, phosphorylates the Akt/SGK-specific peptide substrate RPRAATF with [γ-^32]-ATP. […] The reported values represent the means of two independent determinations.

SF-295 (CNS Cancer) = assay: NCI DTP tumor cell line screen (SRB), SF-295
Description: as §1, §2, §3, §4

BT-549 (Breast Cancer) = assay: NCI DTP tumor cell line screen (SRB), BT-549
Description: as §1, §2, §3, §4

SNB-19 (CNS Cancer) = assay: NCI DTP tumor cell line screen (SRB), SNB-19
Description: as §1, §2, §3, §4

SF-268 (CNS Cancer) = assay: NCI DTP tumor cell line screen (SRB), SF-268
Description: as §1, §2, §3, §4

U251 (CNS Cancer) = assay: NCI DTP tumor cell line screen (SRB), U251
Description: as §1, §2, §3, §4

[3] = HCT-15, Log10 Concentration −5.0
[4] = HCT-15, Log10 Concentration −8.0
[5] = HCT-15, Log10 Concentration −6.0
[6] = HCT-15, Log10 Concentration −7.0

4-[5-(2-Phenanthrenyl)-3-(trifluoromethyl)-1H-pyrazol-1-yl]-phenyl -guanidine [Compound 71]
IC50 (PC-3 cells [1]): 3000 nM | apoptotic death in PC-3 cells (DNA fragmentation and PARP cleavage) (PC-3 cells [2]): induced apoptotic death | direct inhibitory effect on immunoprecipitated Akt kinase activity (Akt): no appreciable direct inhibition | phospho-Akt level (phospho-Akt): substantial decrease | GI50 (HCT-15 (Colon Cancer); HCT-15): 1540 nM | TGI (HCT-15 (Colon Cancer); HCT-15): 2.87E−06 | Percent Growth (HCT-15 (Colon Cancer); HCT-15, Log10 Concentration −4.0): −71% | Percent Growth (HCT-15 (Colon Cancer); [3]): −100% | Percent Growth (HCT-15 (Colon Cancer); [4]): 64% | increase in PDK-1 inhibition potency over compound 59 (recombinant PDK-1): five-fold

NCC(=O)Nc1ccc(-n2nc(C(F)(F)F)cc2-c2ccc3c(ccc4ccccc43)c2)cc1 [Compound 70, 2-Amino-N-{4-[5-(2-phenanthrenyl)-3-(trifluoromethyl)-1H-pyrazol-1-yl]-phenyl}-acetamide]
TGI (SF-295 (CNS Cancer)): 3.71E−06 | Mean Optical Densities (SF-295 (CNS Cancer); Log10 Concentration −4.0): 0.287 | Mean Optical Densities (SF-295 (CNS Cancer); Log10 Concentration −5.0): 0.225 | Percent Growth (SF-295 (CNS Cancer); Log10 Concentration −5.0): −47% | Mean Optical Densities (SF-295 (CNS Cancer); Log10 Concentration −6.0): 0.915 | Percent Growth (SF-295 (CNS Cancer); Log10 Concentration −6.0): 62% | Mean Optical Densities (SF-295 (CNS Cancer); Log10 Concentration −7.0): 1.190 | Percent Growth (SF-295 (CNS Cancer); Log10 Concentration −7.0): 96% | Mean Optical Densities (SF-295 (CNS Cancer); Log10 Concentration −8.0): 1.173 | Percent Growth (SF-295 (CNS Cancer); Log10 Concentration −8.0): 94% | TGI (BT-549 (Breast Cancer)): 2.95E−06 | Mean Optical Densities (BT-549 (Breast Cancer); Log10 Concentration −5.0): 0.143 | Percent Growth (BT-549 (Breast Cancer); Log10 Concentration −5.0): −71% | Mean Optical Densities (BT-549 (Breast Cancer); Log10 Concentration −6.0): 0.785 | Percent Growth (BT-549 (Breast Cancer); Log10 Concentration −6.0): 63% | Mean Optical Densities (BT-549 (Breast Cancer); Log10 Concentration −7.0): 0.891 | Percent Growth (BT-549 (Breast Cancer); Log10 Concentration −7.0): 86% | Mean Optical Densities (BT-549 (Breast Cancer); Log10 Concentration −8.0): 0.912 | Percent Growth (BT-549 (Breast Cancer); Log10 Concentration −8.0): 90% | TGI (HCT-15 (Colon Cancer); HCT-15): 3.19E−06 | Mean Optical Densities (HCT-15 (Colon Cancer); [3]): 0.149 | Percent Growth (HCT-15 (Colon Cancer); [3]): −47% | Mean Optical Densities (HCT-15 (Colon Cancer); [5]): 0.561 | Percent Growth (HCT-15 (Colon Cancer); [5]): 47% | Mean Optical Densities (HCT-15 (Colon Cancer); [6]): 0.599 | Percent Growth (HCT-15 (Colon Cancer); [6]): 54% | Mean Optical Densities (HCT-15 (Colon Cancer); [4]): 0.760 | Percent Growth (HCT-15 (Colon Cancer); [4]): 81% | TGI (SNB-19 (CNS Cancer)): 3.15E−06 | Mean Optical Densities (SNB-19 (CNS Cancer); Log10 Concentration −4.0): 0.324 | Mean Optical Densities (SNB-19 (CNS Cancer); Log10 Concentration −5.0): 0.219 | Percent Growth (SNB-19 (CNS Cancer); Log10 Concentration −5.0): −59% | Mean Optical Densities (SNB-19 (CNS Cancer); Log10 Concentration −6.0): 1.230 | Percent Growth (SNB-19 (CNS Cancer); Log10 Concentration −6.0): 59% | Mean Optical Densities (SNB-19 (CNS Cancer); Log10 Concentration −7.0): 1.655 | Percent Growth (SNB-19 (CNS Cancer); Log10 Concentration −7.0): 94% | Mean Optical Densities (SNB-19 (CNS Cancer); Log10 Concentration −8.0): 1.562 | Percent Growth (SNB-19 (CNS Cancer); Log10 Concentration −8.0): 87% | TGI (SF-268 (CNS Cancer)): 4.16E−06 | Mean Optical Densities (SF-268 (CNS Cancer); Log10 Concentration −4.0): 0.280 | Mean Optical Densities (SF-268 (CNS Cancer); Log10 Concentration −5.0): 0.252 | Percent Growth (SF-268 (CNS Cancer); Log10 Concentration −5.0): −33% | Mean Optical Densities (SF-268 (CNS Cancer); Log10 Concentration −6.0): 0.789 | Percent Growth (SF-268 (CNS Cancer); Log10 Concentration −6.0): 54% | Mean Optical Densities (SF-268 (CNS Cancer); Log10 Concentration −7.0): 0.930 | Percent Growth (SF-268 (CNS Cancer); Log10 Concentration −7.0): 72% | Mean Optical Densities (SF-268 (CNS Cancer); Log10 Concentration −8.0): 1.016 | Percent Growth (SF-268 (CNS Cancer); Log10 Concentration −8.0): 84% | TGI (U251 (CNS Cancer)): 2.64E−06 | Mean Optical Densities (U251 (CNS Cancer); Log10 Concentration −4.0): 0.320 | Mean Optical Densities (U251 (CNS Cancer); Log10 Concentration −5.0): 0.144 | Percent Growth (U251 (CNS Cancer); Log10 Concentration −5.0): −63% | Mean Optical Densities (U251 (CNS Cancer); Log10 Concentration −6.0): 0.810 | Percent Growth (U251 (CNS Cancer); Log10 Concentration −6.0): 46% | Mean Optical Densities (U251 (CNS Cancer); Log10 Concentration −7.0): 1.139 | Percent Growth (U251 (CNS Cancer); Log10 Concentration −7.0): 82% | Mean Optical Densities (U251 (CNS Cancer); Log10 Concentration −8.0): 1.298 | Percent Growth (U251 (CNS Cancer); Log10 Concentration −8.0): 100%
